Experimental data reported in patent US7820025B2, “Methods of synthesizing an oxidant and applications thereof” (Ferrate Treatment Technologies, LLC, priority 2000, dated 2010).

Experiments:
[1] = test system: Heterotrophic bacteria; experiment: Ferrate disinfection test of harbor waters, Heterotrophic bacterial plate count (HPC); type: cell-based; conditions: for HPC: ferrate dose 2.0 mg/L FeO4^2−
Description: (§1) We have conducted preliminary ferrate disinfection tests of harbor waters at two locations in the Port of Cape Canaveral, Fla. Sample A was collected at the inner Port, while Sample B was collected closer to the exit at the Port nearer to the open ocean.

[2] = test system: Total Coliform; experiment: Ferrate disinfection test of harbor waters, Total Coliform count; type: cell-based
Description: as §1

[3] = test system: aerobic spore-formers; conditions: chlorine resistant bacteria; cited from earlier work
[4] = test system: virus f2; conditions: low concentrations in water; cited from earlier work
[5] = test system: sulfite-reducing clostridia; conditions: chlorine resistant bacteria; cited from earlier work
[6] = test system: E. coli; experiment: Ferrate disinfection test of harbor waters, E. coli count; type: cell-based
Description: as §1

[7] = test system: total coliforms; conditions: water sources collected worldwide; cited from earlier work
[8] = test system: biofilm; conditions: model condensers dosed with 10^−5 M solutions of ferrate twice a day, for 5 minutes; cited from earlier work
[9] = harbor water Sample A, ferrate dose 1.0 mg/L FeO4^2−
[10] = harbor water Sample A, ferrate dose 2.0 mg/L FeO4^2−
[11] = harbor water Sample B, ferrate dose 1.0 mg/L FeO4^2−
[12] = harbor water Sample B, ferrate dose 2.0 mg/L FeO4^2−

[O]=[Fe](=[O])([O-])[O-] [Ferrate, ferrate]
HPC ([1]; harbor water Sample A): <5 cfu/mL | HPC ([1]; harbor water Sample B): <5 cfu/mL | levels of Heterotrophic bacteria after ferrate (in words) ([1]; samples A and B, dose of approximately 2 mg/L): reduced to non-detectable values | total coliform level after ferrate addition (in words) ([2]; Sample A, ferrate dose 0.5 mg/L): reduced to non-detectable levels | Total Coliform ([2]; harbor water Sample A (inner Port, Port of Cape Canaveral), ferrate dose 0.5 mg/L FeO4^2−): <1 MPN/100 mL | Total Coliform [2, 9]: <1 MPN/100 mL | Total Coliform [2, 10]: <1 MPN/100 mL | Total Coliform ([2]; harbor water Sample B (near Port exit), ferrate dose 0.5 mg/L FeO4^2−): <1 MPN/100 mL | Total Coliform [2, 11]: <1 MPN/100 mL | Total Coliform [2, 12]: <1 MPN/100 mL | reduction of spore-formers [3]: up to 3 log units | inactivation of virus f2 [4]: rapidly inactivates | killing of sulfite-reducing clostridia [5]: effectively killed | disinfection for E. coli (in words) ([6]; both samples, dose 0.5 mg/L): effective in killing E. coli | E. Coli ([6]; harbor water Sample A, ferrate dose 0.5 mg/L FeO4^2−): <1 MPN/100 mL | E. Coli [6, 9]: <1 MPN/100 mL | E. Coli [6, 10]: <1 MPN/100 mL | E. Coli ([6]; harbor water Sample B, ferrate dose 0.5 mg/L FeO4^2−): <1 MPN/100 mL | E. Coli [6, 11]: <1 MPN/100 mL | E. Coli [6, 12]: <1 MPN/100 mL | removal of total coliforms [7]: complete removal | biofilm growth [8]: inhibited
